# Counter-ions that a name gives are not always drawn.
# Assay: Comparison of thermal stability of 5-MP salts (pure unformulated compound, colorimetric assay for intact thiol group)
# Format: physicochemical
# Conditions: for Thermal Stability % Remaining: pure unformulated salt
# Method: Thus, in order to evaluate the relative stability of several salts of 5-mercaptopyridoxine, the test salts selected (i.e., the ethane-1,2-disulfonate, the phosphate, the sulfamate, the nitrate and the hydrochloride) were subjected to accelerated conditions of high temperature as the pure, unformulated, compound. The high temperature date obtained at 80° C. and at 105° C. is conventionally used in the pharmaceutical industry to screen compounds in as short a time as possible. Where a number of derivatives or salts are available, comparative data can be obtained and the test compounds can be ranked in an expected order of stability. The thermally stressed salts were assayed colorimetrically for intact thiol group. The ethanedisulfonate, hydrochloride and sulfamate salts also were subjected to NMR analysis to confirm the chemical analysis. The NMR data supports the chemical data.
SMILES,"Thermal Stability % Remaining (80° C, 1 week, 10080 min)","Thermal Stability % Remaining (80° C, 3 weeks, 30240 min)","Thermal Stability % Remaining (105° C, 3 days, 4320 min)","Thermal Stability % Remaining (105° C, 7 days, 10080 min)",relative thermal/chemical stability among 5-MP salts (in words) (at the temperatures employed (80° C and 105° C)),"Thermal Stability % Remaining (80° C, 1 week, 10080 min, hydrochloride)","Thermal Stability % Remaining (80° C, 3 weeks, 30240 min, hydrochloride)","Thermal Stability % Remaining (105° C, 3 days, hydrochloride, 4320 min)"
"Cc1ncc(CS)c(CO)c1O [Ethanedisulfonate, Bis(2-methyl-3-hydroxy-4-hydroxymethyl-5-mercaptomethyl-pyridinium) ethane-1,2-disulfonate]",101.0%,100.2%,97.3%,99.4%,most stable salt,–,–,–
"Cc1ncc(CS)c(CO)c1O [Hydrochloride, 5-mercaptopyridoxine hydrochloride]",–,–,–,–,–,70.5%,57.3%,57.3%
Cc1ncc(CS)c(CO)c1O [Nitrate],87.2%,–,–,–,–,–,–,–
Cc1ncc(CS)c(CO)c1O [Phosphate],–,–,93.0%,58.0%,–,–,–,–
Cc1ncc(CS)c(CO)c1O [Sulfamate],94.0%,75.7%,13.0%,8.8%,–,–,–,–

# — patent US4046897A, “5-Mercaptopyridoxine alkanesulfonates and methods of use and pharmaceutical compositions” (Merck & Co., Inc., priority 1976, dated 1977)
